In US10440955B2, “Methods comprising a biocidal polyamine” (Curza Global, LLC, priority 2013, dated 2019):
Where “and” joins values, the source holds several entries; their conditions need not be identical. Equal values may be shown once. Where a name gives a salt, the structure may show the parent alone. Read-outs that look alike come from different tables or passages of the source. Blank lines part the entries; values can stand above or below the compound they belong to.

How the values were obtained:
A. baumannii biofilms = experiment: EBEC, high number biofilms on PEEK membranes, 10^9 to 10^2 CFU/PEEK membrane in 24 hours; assay type: cell-based, Acinetobacter baumannii
Procedure: (§1) In addition to determining the MIC and the MBEC of polyamine compounds against planktonic bacteria and low number biofilms, our group wanted to determine the efficacy of polyamine compounds against high number biofilms. To do so, biofilms were grown on the surface of polyetheretherketone (PEEK) membranes using a membrane biofilm reactor. This reactor is similar to the CDC biofilm reactor, but rather than growing biofilms on coupon surfaces, the reactor was modified to hold PEEK membranes. In short, to grow biofilms within this system, 500 mL of brain heart infusion (BHI) broth were inoculated with 1 mL of a 0.5 McFarland. The reactor was placed on a hot plate set at 34° C. and the bacteria were grown under batch conditions for 24 hours. Following this protocol, biofilms typically grow to 10^9 CFU/PEEK membrane. […] A solution of 10% BHI was then flowed through the reactor at a rate of 6.94 mL/min for an additional 24 hours. PEEK membranes were then removed and placed into 2 mL of CAMHB that contained a desired concentration of polyamine compound or antibiotic. The EBEC was defined as the concentration of antimicrobial required to reduce a biofilm from approximately 10^9 CFU/PEEK membrane to approximately 10^2 CFU/PEEK membrane in a 24-hour period.
(§2) In addition to determining the MIC and the MBEC of compounds against planktonic bacteria and low number biofilms, the efficacy of the compounds of the invention against high number biofilms is determined. To do so, biofilms are grown on the surface of PEEK membranes using a membrane biofilm reactor (Williams, D. L., Haymond, B. S. & Bloebaum, R. D. Use of delrin plastic in a modified CDC biofilm reactor. Res J Microbiol 6, 425-429 (2011); Williams, D. L., Woodbury, K. L., Haymond, B. S., Parker, A. E. & Bloebaum, R. D. A modified CDC biofilm reactor to produce mature biofilms on the surface of PEEK membranes for an in vivo animal model application. Curr Microbiol 62, 1657-1663 (2011); Williams, D. L. et al., In Vivo Efficacy of a Silicone—Cationic Steroid Antimicrobial Coating to Prevent Implant-Related Infection. Biomaterials 33, 8641-8656 (2012); Williams, D. L. et al., Experimental model of biofilm implant-related osteomyelitis to test combination biomaterials using biofilms as initial inocula. J Biomed Mat Res A 100, 1888-1900 (2012)). This reactor is similar to the CDC biofilm reactor, but rather than growing biofilms on coupon surfaces, the reactor was modified to hold PEEK membranes. In short, to grow biofilms within this system, 500 mL of brain heart infusion (BHI) broth is inoculated with 1 mL of a 0.5 McFarland. The reactor is placed on a hot plate set at 34° C. and the bacteria grown under batch conditions for 24 hours. A solution of 10% BHI will then be flowed through the reactor at a rate of 6.94 mL/min for an additional 24 hours. Following this protocol, biofilms typically grow to 10^9 CFU/PEEK membrane. PEEK membranes is removed and placed into 2 mL of CAMHB that contain a desired concentration of the test compound. The EBEC is defined as the concentration of antimicrobial required to reduce a biofilm from approximately 10^9 CFU/PEEK membrane to approximately 10^2 CFU/PEEK membrane in a 24-hour period.
EBEC data were collected to determine the efficacy of CZ-52, CZ-58 and traditional antibiotics against high number biofilms containing approximately 10^9 CFU grown on the surface of a polyetheretherketone (PEEK) membrane. […] In contrast, at 250 μg/mL CZ-52 was able to reduce MRSA biofilms by greater than 7 log10 units in a 24-hour period. Although the MIC of CZ-58 was lower against MRSA compared to A. baumannii, CZ-58 had greater activity against biofilms of A. baumannii than against MRSA biofilms in the EBEC assay. […] Although the MIC of CZ-58 was “high” compared to MICs of traditional antibiotics, the efficacy against biofilms was promising.

MRSA = experiment: MIC, 96-well CAMHB, 10^5 to 10^2 CFU/mL in 24 hours; assay type: cell-based, Staphylococcus aureus; settings: Staphylococcus aureus, MRSA
Outline: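 Compound exposure was 24 h at 37 °C in CAMHB with an inoculum of ~5×10^5 CFU/mL from a 0.5 McFarland; eight replicates per concentration.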

P. aeruginosa = experiment: as above; assay type: cell-based, Pseudomonas aeruginosa; settings: for MIC: Pseudomonas aeruginosa
Outline: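 Broth microdilution in CAMHB with about 5×10^5 CFU/mL inoculum, incubated 24 h at 37 °C with graded polyamine compound concentrations. Surviving CFU/mL determined by plating each well on TSA for 24 h at 37 °C; n=8 per concentration.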

MRSA biofilms [1] = experiment: EBEC, high number biofilms on PEEK membranes, 10^9 to 10^2 CFU/PEEK membrane in 24 hours; assay type: cell-based, Staphylococcus aureus
Procedure: as §1, §2
EBEC data were collected to determine the efficacy of CZ-52, CZ-58 and traditional antibiotics against high number biofilms containing approximately 10^9 CFU grown on the surface of a polyetheretherketone (PEEK) membrane.

MRSA biofilms [2] = experiment: MBEC, MBEC Inoculation Tray (Innovotech), to 10^2 CFU/peg in 24 hours; assay type: cell-based; settings: Staphylococcus aureus, read-out: MICs (μg/mL): MRSA

Compound: Polymyxin B sulfate [reference compound]
EBEC μg/mL (μM) A. baumannii (A. baumannii biofilms; Table 4): 1,000 μg/mL
EBEC μg/mL (μM) A. baumannii (A. baumannii biofilms; Table 4, value in parentheses): (722) μM

Compound: CC(C)CNCCCNCCCNCc1cc(CNCCCNCCCNCC(C)C)cc(-c2ccccc2)c1 [CZ-86, N^1,N^1′-([1,1′-biphenyl]-3,5-diylbis(methylene))bis(N^3-(3-(isobutylamino)propyl)propane-1,3-diamine), hydrochloride salt]
MIC (MRSA; read-out: MIC (MRSA)): < 50 µM
MIC (P. aeruginosa) (P. aeruginosa; Table 5): ++ to +++

MIC (MRSA; Table 3A c1, read-out: MICs (μg/mL): MRSA (first MRSA column)): > 500 µg/mL
MIC (MRSA; Table 4, value in parentheses, read-out: MIC μg/mL (μM) MRSA): > 2260 µM
MIC (MRSA; Table 4, read-out: MIC μg/mL (μM) MRSA): > 500 µg/mL
MIC (MRSA; Table 5, read-out: MIC (MRSA)): > 100 µM
MIC (P. aeruginosa; Table 3A c2, read-out: MICs (μg/mL): P. aeruginosa): > 500 µg/mL
MIC (P. aeruginosa; Table 5, read-out: MIC (P. aeruginosa)): > 100 µM
MIC (MRSA biofilms [2]; Table 3A c4, group head missing, probably MBEC): > 500 µg/mL
Compound: NCCCNCCCNCc1ccccc1 [CZ-7, benzylnorspermidine]
EBEC μg/mL (μM) A. baumannii (A. baumannii biofilms; Table 4): >10,000 μg/mL
EBEC μg/mL (μM) A. baumannii (A. baumannii biofilms; Table 4, value in parentheses): (>45,180) μM
EBEC μg/mL (μM) MRSA (MRSA biofilms [1]; Table 4): >5,000 μg/mL
EBEC μg/mL (μM) MRSA (MRSA biofilms [1]; Table 4, value in parentheses): (>22,590) μM

Compound: NCCCNCCCNCc1cc(CNCCCNCCCN)cc(CNCCCNCCCN)c1 [CZ-52, N^1,N^1′,N^1″-(benzene-1,3,5-triyltris(methylene))tris(N^3-(3-aminopropyl)propane-1,3-diamine), hydrochloride salt]
EBEC μg/mL (μM) A. baumannii (A. baumannii biofilms; Table 4): ~7,000 μg/mL
EBEC μg/mL (μM) A. baumannii (A. baumannii biofilms; Table 4, value in parentheses): (~14,000) μM
EBEC μg/mL (μM) MRSA (MRSA biofilms [1]; Table 4): 250 µg/mL
EBEC μg/mL (μM) MRSA (MRSA biofilms [1]; Table 4, value in parentheses): (500) μM

Compound: NCCCNCCCNCc1cc(CNCCCNCCCN)cc(-c2ccccc2)c1 [CZ-58, N^1,N^1′-([1,1′-biphenyl]-3,5-diylbis(methylene))bis(N^3-(3-ammoniopropyl)propane-1,3-diaminium) chloride]
EBEC μg/mL (μM) A. baumannii (A. baumannii biofilms; Table 4): 400 µg/mL
EBEC μg/mL (μM) MRSA (MRSA biofilms [1]; Table 4): 1,500 μg/mL
MIC (P. aeruginosa) (P. aeruginosa; Table 5): ++ to +++

Compound: NCCCNCCCNCc1cccc(CNCCCNCCCN)c1 [CZ-25, N^1,N^1′-(1,3-phenylenebis(methylene))bis(N3-(3-ammoniopropyl)propane-1,3-diaminium) chloride]
EBEC μg/mL (μM) A. baumannii (A. baumannii biofilms; Table 4): ~7,500 μg/mL
EBEC μg/mL (μM) MRSA (MRSA biofilms [1]; Table 4): >5,000 μg/mL
MIC (P. aeruginosa; read-out: MICs (μg/mL): P. aeruginosa, Table 3A c2): 500 µg/mL

Compound: CN[C@H](CC(C)C)C(=O)N[C@H]1C(=O)N[C@@H](CC(N)=O)C(=O)N[C@H]2C(=O)N[C@H]3C(=O)N[C@H](C(=O)N[C@H](C(=O)O)c4cc(O)cc(O)c4-c4cc3ccc4O)[C@H](O)c3ccc(c(Cl)c3)Oc3cc2cc(c3O[C@@H]2O[C@H](CO)[C@@H](O)[C@H](O)[C@H]2O[C@H]2C[C@](C)(N)[C@H](O)[C@H](C)O2)Oc2ccc(cc2Cl)[C@H]1O [vancomycin, reference compound]
EBEC μg/mL (μM) MRSA (MRSA biofilms [1]; Table 4): >>25,000 μg/mL
reduction of biofilms of MRSA (MRSA biofilms [1]; at 25,000 μg/mL, 24-hour period): < 1 log10 unit
MIC (MRSA; read-out: MIC μg/mL (μM) MRSA): 10 µg/mL and 6.9 µM
MIC (MRSA; read-out: MICs (μg/mL): MRSA (first MRSA column)): 10 µg/mL
MIC (MRSA biofilms [2]): > 500 µg/mL
